The test system of series [1] is primary human fibroblasts (FF868). The series can be described thus: MUH proliferation assay, fibroblasts. Format: cell-based. The following applies: 6-PN, 8-PN 0.1 μM to 100 μM; TSA, SAHA 100 μM. As to the method:
(§1) FIG. 5: real time cell monitoring of BLM and SK-MEL-28 melanoma cells treated with 6-PN and 8-PN. (A) BML and SK-MEL-28 cells were treated 24 hours after seeding with different concentrations of 6-PN and 8-PN (20 μM, 50 μM and 100 μM) over a 104 hour time period. The cellular impedance was measured over the entire observation time using the xCELLigence™ SP system and is depicted by the cell index (CI). All CI-values were normalized shortly before the treatment started. […] As a positive control, Triton X-100 0.1% was used to induce cell death. Shown are the mean±SD of three independent experiments, each performed in triplicates (B, C). […] Shown are the mean±SD; the experiments were performed in quadruplicates. (D) The MUH proliferation assay was repeated unter the same treatment conditions on primary human fibroblasts (FF868) and melanocytes (HEM1).
(§2) The cells were seeded in triplicates in 96-well plates at a density of 2,500 cells per well in 50 μl medium (5×10^4 cells per milliliter). After 24 hours, the medium was replaced by medium containing 6-PN, 8-PN (dissolved in DMSO), TSA (dissolved in EtOH) or SAHA (dissolved in DMSO) at the concentrations to be tested with or without the addition of the necrosis inhibitor IM-54 at 5 μM (Calbiochem, Darmstadt, Germany). Cells treated with culture medium without or with DMSO served as controls. The assay was started following an incubation of 24 hours. […] Plates were incubated at 37° C. for 1 hour and measured in a Fluoroskan II (Lab Systems, Helsinki, Finland) with a […]. The intensity of fluorescence indicates the number of viable cells in the wells.
(§3) Next it was asked whether the PNs also influence the proliferation of benign cells. To this end, human fibroblasts (FF) and foreskin melanocytes (HEM1) were treated with the same concentrations of 6-PN and 8-PN, and proliferation was assessed using the proliferation assay as described above.

Series [2] concerns foreskin melanocytes (HEM1). The series can be described thus: MUH proliferation assay, melanocytes. The series is classed as cell-based. The following applies: 6-PN, 8-PN at higher concentrations (0.1 μM to 100 μM tested); TSA, SAHA 100 μM. The protocol:
as §1, §2, §3

The subject of a further series is chicken embryos. The experiment in a line: Embryo toxicity testing in chicken embryos. Format: in vivo. The note with it: 100 μM in ethanol and PBS, after 72 hours. As to the method:
FIG. 11: 6-PN and 8-PN reduce proliferation and invasion of BLM and LOXIMVI melanoma cells in human epidermal skin reconstructs and induce little embryo toxicity. (A) BLM melanoma cells and keratinocytes were seeded on top of a collagen matrix populated by fibroblasts. After 16 days a keratinizing stratified epithelium with a rudimentary corium is formed. […] (B) Similar results were obtained for LOXIMVI melanoma cells under the same treatment conditions. Only nests of dead, MIB1 negative LOXIMVI cells were detected after treatment with the PNs. (C) Chicken embryos stage 13HH (corresponding to 6 human gestational weeks) were exposed to DMSO as control, 100 μM 6-PN or 100 μM 8-PN to determine LD50 values. Survival rates after 24 hours, 48 hours, and 72 hours are depicted in a Kaplan-Meier plot.
Fertilized eggs of leghorn chickens (Gallus gallus domesticus) were incubated at 38° C. in a temperature-controlled, humidified brooder. […]
Due to the detected cytotoxic effects on cancer cells and of melanocytes in vitro, the determination of in vivo embryotoxicity was of great interest. To this end, 2-day chicken embryos were treated for 24, 48 and 72 hours with 100 μM 6-PN or 100 μM 8-PN to monitor survival as readout for lethal embryotoxicity (FIG. 11C). […]

In the case of `CC(C)=CCc1c(O)cc(O)c2c1OC(c1ccc(O)cc1)CC2=O` (stereo not drawn) [8-PN, 5,7-Dihydroxy-2-(4-hydroxy-phenyl)-8-(3-methyl-but-2-enyl)-chroman-4-one], the fibroblast proliferation entry in series [1] is “hardly affected”. In addition, in series [2], the melanocyte proliferation entry was “markedly decreased”. Also, the embryos survived in the series with chicken embryos is given as 8/10.

The values are drawn from patent US20160067211A1, “PHARMACEUTICAL COMPOSITION” (Eberhard Karls Universitaet Tuebingen Medizinische Fakultaet, priority 2013, published 2016).
